These results are taken from ChEMBL document CHEMBL1201862, “PubChem BioAssay data set” (2004).

One may read the AC50 as the midpoint of the concentration-response curve, whichever way the signal moves.

Test [1] concerns the target T1, Corticotropin-releasing factor receptor 2/Corticotropin-releasing factor-binding protein (Homo sapiens, UniProt P24387+Q13324).
T1 sequence (Q13324 whole entry): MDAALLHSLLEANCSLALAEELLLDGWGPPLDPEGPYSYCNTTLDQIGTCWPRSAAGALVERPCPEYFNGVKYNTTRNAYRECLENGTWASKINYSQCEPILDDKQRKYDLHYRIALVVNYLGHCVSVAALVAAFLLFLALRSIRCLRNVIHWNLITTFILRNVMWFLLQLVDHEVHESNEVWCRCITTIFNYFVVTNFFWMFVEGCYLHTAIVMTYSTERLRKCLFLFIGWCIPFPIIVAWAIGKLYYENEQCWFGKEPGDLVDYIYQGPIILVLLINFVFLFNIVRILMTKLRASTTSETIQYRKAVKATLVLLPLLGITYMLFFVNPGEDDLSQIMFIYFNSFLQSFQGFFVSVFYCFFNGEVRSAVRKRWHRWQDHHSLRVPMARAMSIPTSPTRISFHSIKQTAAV
T1 sequence (P24387 whole entry): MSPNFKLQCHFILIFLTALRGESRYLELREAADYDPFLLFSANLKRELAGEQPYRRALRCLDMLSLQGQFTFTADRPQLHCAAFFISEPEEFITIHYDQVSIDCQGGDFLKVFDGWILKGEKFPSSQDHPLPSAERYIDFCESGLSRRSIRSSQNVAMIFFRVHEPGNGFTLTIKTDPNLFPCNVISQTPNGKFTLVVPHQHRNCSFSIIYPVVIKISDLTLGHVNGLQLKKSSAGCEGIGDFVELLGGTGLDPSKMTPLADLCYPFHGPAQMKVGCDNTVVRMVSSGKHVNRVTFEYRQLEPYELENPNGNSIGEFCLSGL
Briefly: Dose Response confirmation of uHTS hits for small molecule antagonists of the CRF-binding protein and CRF-R2 receptor complex. Type of test: functional. The following applies: read-out: IC50_Mean.

Test [2] has as its target T1, Corticotropin-releasing factor receptor 2/Corticotropin-releasing factor-binding protein. Nature of the test: activators of CRF receptor 2 with binding protein – uHTS hits, confirmation (AID 602473). The format is functional. The following applies: read-out: EC50_Mean.
In the next test the test system is Vero. Briefly: cells. The format is functional. Particulars: Chlorocebus sabaeus.
Test [3] can be described thus: viability of PTEN-deleted HCT116 cells – cell-based, HCT116 PTEN knockout, dose response (AID 1047).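 Also: HCT116 colon tumor cells with PTEN knocked out; cells exposed to compound for 60 hours before readout; potency for loss of cell viability measured by luminescence.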 Type of test: functional.
Test [4] can be described thus: viability of HCT116 lacking mutant beta-catenin – cell-based, human colon tumor, dose response (AID 1045).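 Also: HCT116 colon tumor cells with beta catenin knocked out; cells exposed to compound for 60 hours.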 Type of test: functional.
Test [5] concerns the target T2, Replicative DNA helicase DnaB (Mycobacterium tuberculosis, UniProt P9WMR3).
T2 sequence (P9WMR3 whole entry): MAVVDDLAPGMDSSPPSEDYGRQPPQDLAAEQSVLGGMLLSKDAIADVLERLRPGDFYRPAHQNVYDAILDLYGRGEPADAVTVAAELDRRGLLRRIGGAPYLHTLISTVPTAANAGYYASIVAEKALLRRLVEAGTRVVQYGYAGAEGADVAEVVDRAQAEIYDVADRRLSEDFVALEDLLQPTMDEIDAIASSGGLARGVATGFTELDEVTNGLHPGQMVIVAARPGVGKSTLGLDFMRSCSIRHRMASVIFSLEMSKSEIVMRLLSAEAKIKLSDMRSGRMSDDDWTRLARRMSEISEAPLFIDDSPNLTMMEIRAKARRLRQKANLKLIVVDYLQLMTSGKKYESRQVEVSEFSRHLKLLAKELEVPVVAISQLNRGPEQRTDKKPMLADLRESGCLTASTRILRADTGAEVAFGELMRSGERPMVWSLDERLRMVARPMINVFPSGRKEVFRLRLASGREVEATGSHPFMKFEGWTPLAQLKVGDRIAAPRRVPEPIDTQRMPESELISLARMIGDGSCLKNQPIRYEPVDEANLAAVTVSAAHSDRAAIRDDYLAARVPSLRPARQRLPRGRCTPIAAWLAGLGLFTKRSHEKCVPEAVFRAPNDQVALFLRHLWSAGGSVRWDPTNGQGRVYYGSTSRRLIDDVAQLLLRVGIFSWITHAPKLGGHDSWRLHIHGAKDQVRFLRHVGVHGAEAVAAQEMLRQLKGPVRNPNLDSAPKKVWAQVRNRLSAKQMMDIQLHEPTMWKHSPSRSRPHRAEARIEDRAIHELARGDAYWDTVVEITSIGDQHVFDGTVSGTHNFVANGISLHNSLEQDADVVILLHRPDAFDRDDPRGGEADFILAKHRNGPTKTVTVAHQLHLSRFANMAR
Nature of the test: DnaB intein splicing inhibitors, dose response, biochemical, cell-free fluorescence (AID 449749). The format is functional.

The next test deals with T3, Protein RecA (Mycobacterium tuberculosis, UniProt P9WHJ3).
T3 sequence (P9WHJ3 whole entry): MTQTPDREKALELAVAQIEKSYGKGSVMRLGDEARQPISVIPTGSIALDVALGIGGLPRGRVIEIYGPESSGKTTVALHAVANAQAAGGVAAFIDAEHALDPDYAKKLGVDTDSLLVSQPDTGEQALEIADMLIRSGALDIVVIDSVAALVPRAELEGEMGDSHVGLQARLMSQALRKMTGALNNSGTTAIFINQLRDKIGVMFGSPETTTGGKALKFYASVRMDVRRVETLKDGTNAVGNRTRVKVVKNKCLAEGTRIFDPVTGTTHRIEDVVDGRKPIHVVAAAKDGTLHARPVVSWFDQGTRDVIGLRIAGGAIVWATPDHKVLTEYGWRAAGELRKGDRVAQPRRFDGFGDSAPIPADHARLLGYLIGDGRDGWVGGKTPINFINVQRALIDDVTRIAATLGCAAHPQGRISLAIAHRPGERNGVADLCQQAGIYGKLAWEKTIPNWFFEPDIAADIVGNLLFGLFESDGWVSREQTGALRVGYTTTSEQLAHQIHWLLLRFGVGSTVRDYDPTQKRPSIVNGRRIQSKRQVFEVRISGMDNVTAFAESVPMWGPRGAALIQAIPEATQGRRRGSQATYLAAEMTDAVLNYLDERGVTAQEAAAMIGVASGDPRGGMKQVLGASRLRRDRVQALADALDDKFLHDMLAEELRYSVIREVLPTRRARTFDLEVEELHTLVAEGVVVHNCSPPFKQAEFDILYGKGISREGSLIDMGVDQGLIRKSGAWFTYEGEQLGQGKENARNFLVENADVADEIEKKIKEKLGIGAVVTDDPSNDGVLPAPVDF
Nature of the test: Fluorescence Cell-Free Homogeneous Dose Retest to Identify Inhibitors of RecA-Intein Splicing Activity. [Related pubchem assays (depositor defined):AID2097, AID2223, AID489010, AID492950]. The format is functional.

Test [6] in a line: microbe, parasite or virus in culture. Type of test: functional. The following applies: Mycobacterium tuberculosis.
Test [7] addresses Luciferin 4-monooxygenase (Photinus pyralis, UniProt P08659). Briefly: inhibition of purified Photinus pyralis luciferase – biochemical, luminescence, dose response (AID 1891).
A short description of test [8]: Luminescence Cell-Based Dose Confirmation HTS to Identify Inhibitors of Platelet Dense Granule Release. [Related pubchem assays: 1663 (Primary HTS), 1678 (Summary of Project)]. The format is functional.
The next test addresses Paired box protein Pax-8 (Homo sapiens, UniProt Q06710). Briefly: PAX8 transcriptional activity inhibition in RMG-I – RMG-I cells, luciferase, cherry-pick, dose response (AID 687027).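 Also: luciferase reporter driven by Pax8 target thyroperoxidase promoter measured by SteadyGlo luminescence.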 Type of test: functional, cell-based.
The nature of test [9]: Trypanosoma cruzi growth suppression in host cells – NIH3T3 host cells, beta-gal luminescence, confirmation (AID 2044).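 Also: intracellular parasites grown in NIH/3T3 mouse fibroblasts as host cells; luminescent beta-galactosidase reporter signal from transgenic T. cruzi replicating inside host cells; inhibitors lower the luminescence signal.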 Type of test: functional, cell-based.
A short description of test [10]: NIH3T3 cell viability loss – ATP luminescence, mouse fibroblasts, counter-screen, dose response (AID 2010).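 Also: cells exposed to compound for about 90 hours before reading.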 Type of test: functional, cell-based.
Test [11] addresses T4, Ubiquitin-conjugating enzyme E2 N (Homo sapiens, UniProt P61088).
T4 sequence (P61088 whole entry): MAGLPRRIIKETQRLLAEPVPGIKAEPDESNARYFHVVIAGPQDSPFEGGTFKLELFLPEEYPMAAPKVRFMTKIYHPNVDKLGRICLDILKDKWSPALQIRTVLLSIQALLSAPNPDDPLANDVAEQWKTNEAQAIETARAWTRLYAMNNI
Type of test: functional.

For another test, the system named is INS1. Nature of the test: INS-1E survival protection against cytokine death – cell-based, luminescence, retest, dose response (AID 449756).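 Also: cell death triggered by IL-1 beta plus TNF-alpha plus IFN-gamma mixture; protective hits raise ATP signal compared with cytokine alone wells.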 The format is functional. Particulars: Rattus norvegicus.
A short description of test [12]: luciferase reporter signal suppression in cells – H4 neuroglioma cells, luminescence, dose response (AID 1990). Type of test: functional, cell-based. (In general: A reporter such as luciferase makes a cellular process visible.)
The nature of test [13]: Luminescence Cell-Based Dose Response HTS to Identify Inhibitors of 5'UTR Stem-Loop Driven Prion Protein mRNA Translation in H4 Neuroglioblastoma Cells. [Related pubchem assays: 1827 (Project Summary), 1813 (Primary HTS)]. Type of test: functional.
Test [14] in a line: alpha-synuclein stem-loop luciferase translation blockers – H4 neuroglioma cells, luminescence, confirmation (AID 1988). Type of test: functional, cell-based.

Active and inactive are the calls of the source.

Sequence of Luciferin 4-monooxygenase (P08659 whole entry): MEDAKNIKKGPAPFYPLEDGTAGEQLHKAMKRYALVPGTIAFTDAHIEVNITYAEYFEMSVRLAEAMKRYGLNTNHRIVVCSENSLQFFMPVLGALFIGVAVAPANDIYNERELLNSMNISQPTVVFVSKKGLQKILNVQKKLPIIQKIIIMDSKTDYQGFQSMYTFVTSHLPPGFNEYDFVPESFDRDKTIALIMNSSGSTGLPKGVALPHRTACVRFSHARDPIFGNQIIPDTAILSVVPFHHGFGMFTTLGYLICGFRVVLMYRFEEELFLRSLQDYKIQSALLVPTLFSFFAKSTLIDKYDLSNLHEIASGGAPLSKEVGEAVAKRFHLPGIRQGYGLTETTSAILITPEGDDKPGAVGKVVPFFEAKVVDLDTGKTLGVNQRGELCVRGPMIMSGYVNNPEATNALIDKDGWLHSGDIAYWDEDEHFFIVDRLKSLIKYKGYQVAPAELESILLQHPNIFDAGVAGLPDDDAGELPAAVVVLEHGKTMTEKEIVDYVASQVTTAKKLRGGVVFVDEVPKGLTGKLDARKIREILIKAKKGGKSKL
Sequence of Paired box protein Pax-8 (Q06710 whole entry): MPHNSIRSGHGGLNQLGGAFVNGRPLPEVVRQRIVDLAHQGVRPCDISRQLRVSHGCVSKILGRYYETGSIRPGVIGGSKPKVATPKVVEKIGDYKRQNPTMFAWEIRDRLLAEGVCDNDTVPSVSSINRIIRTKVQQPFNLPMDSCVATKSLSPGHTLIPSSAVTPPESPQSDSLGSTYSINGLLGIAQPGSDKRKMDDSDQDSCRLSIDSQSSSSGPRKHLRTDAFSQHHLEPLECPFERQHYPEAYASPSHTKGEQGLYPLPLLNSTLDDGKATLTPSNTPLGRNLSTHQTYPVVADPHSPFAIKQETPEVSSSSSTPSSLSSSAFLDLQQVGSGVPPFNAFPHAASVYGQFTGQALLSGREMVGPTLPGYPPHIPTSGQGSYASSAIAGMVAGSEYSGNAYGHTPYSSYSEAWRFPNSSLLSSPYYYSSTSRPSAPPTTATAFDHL

In the case of `C[C@@H]1CCCCO[C@@H](CN(C)CC2CC2)[C@@H](C)CN([C@H](C)CO)C(=O)c2cc(N(C)C)ccc2O1`, the IC50 in [1] was > 47.1 µM (inactive). Further, the EC50 in [2] is > 53 µM (inactive).

`C[C@H]1CN([C@@H](C)CO)S(=O)(=O)c2ccc(Br)cc2O[C@@H]1CN(C)Cc1cccc(F)c1`: the CC50 in the test on Vero is > 25 µM (active).

For the molecule `CC(C)CC(C(=O)Nn1cnnc1)N1C(=O)c2ccccc2C1=O` (configuration not stated), the IC50 in test [1] is > 47.1 µM (inactive). The EC50 in test [2] was > 53 µM (inactive).

With `CCOC(=O)c1nnc(-c2ccccc2)nc1Sc1c(Cl)cccc1Cl`, the EC50 is 26.9 µM (active) in test [3], 27.7 µM (active) in test [4] and > 380 µM (inconclusive) on Protein RecA. Besides, in test [5], the AC50 is 2.22 µM (active).

For `COc1ccc(-c2nc(NC(=O)Cn3ccc(C(F)(F)F)n3)sc2C)cc1`, the CC50 in test [6] was > 40 µM (active).

For the molecule `O=C(NCCCN1CCOCC1)c1ccccc1`, the EC50 in test [7] and in [8] was > 112 µM (not active) in each case.

`Cc1cccc(OCC(=O)N2CCN(C(=O)c3cccs3)CC2)c1`: the EC50 in test [7] and in test [8] was > 112 µM (not active) in each case.

As to `O=C(C1CCC1)N1CCCCN2[C@H](CO)[C@H](c3ccc(-c4cccc(F)c4)cc3)[C@H]2C1`, the half-maximal activity concentration (AC50) on Paired box protein Pax-8 was 19.1 µM (active).

As to `COc1ccc(SCC(=O)Nc2ccccc2Cl)cc1`, in test [1], the IC50 was > 47.1 µM (inactive). Moreover, the EC50 in test [2] was > 53 µM (inactive).

For the molecule `CN(C(=S)NC(=O)c1ccc(Cl)cc1)C1CCCCC1`, the CC50 in test [6] is > 40 µM (active).

As for `Cc1ccc(S(=O)(=O)N2[C@@H](c3ccc(Br)cc3)C(C(=O)O)=CC[C@H]2c2cccc(C)c2)cc1`, in test [1], the IC50 is > 47.1 µM (inactive). Besides, the EC50 in [2] is > 53 µM (inactive).

As for `O=C1CCc2ccc(OCCCCN3CCN(c4cccc(Cl)c4Cl)CC3)cc2N1` [ARIPIPRAZOLE], the CC50 in test [6] was 29.4 µM (active).

For `COc1ccccc1CN1CCCC(C(=O)N(C)Cc2ccccc2)C1` (configuration not stated), the IC50 in [1] was > 47.1 µM (inactive). Moreover, the EC50 in [2] was > 53 µM (inactive).

Regarding `COc1ccc(C=NN=C2c3ccccc3-c3ccccc32)cc1O`, the CC50 with Vero is > 25 µM (active).

With `C[C@H]1CN([C@@H](C)CO)C(=O)c2ccccc2-c2ccccc2CO[C@H]1CN(C)S(=O)(=O)c1ccc(C(F)(F)F)cc1`, the AC50 on Paired box protein Pax-8 is 9.62 µM (active).

Regarding `O=C(CCN1C(=O)/C(=C\c2ccccc2)SC1=S)N1CCOCC1`, the CC50 in the test on Vero is 24.5 µM (active).

For the molecule `Cc1sc(NC(=O)c2ccco2)c(C(c2ccccc2)N2CCC(C)CC2)c1C` (configuration not stated), the EC50 in test [9] is 1.09 µM (active); in test [10] it was > 60 µM (not active). The CC50 with Vero is 14.1 µM (active).

As for `O=C(/C=C/c1ccncc1)c1ccc2c(c1)OCCO2`, in the test with Vero, the CC50 is > 25 µM (active).

For `COc1cccc(C(=O)NCc2nnc(SCC(=O)Nc3nccs3)n2-c2ccccc2)c1`, the EC50 in [7] and in test [8] was > 112 µM (not active) each time.

`Cc1nc(N)c2c(Cc3cccc4ccccc34)nn(C(C)(C)C)c2n1`: the IC50 in [11] is > 20 µM (inactive).

Consider `CC(=O)c1c(S)nc(-c2ccccc2)nc1N1CCN(C)CC1`, for which the EC50 in test [7] and in [8] was > 112 µM (not active) in each case.

In the case of `CC1CCN(c2c(NCc3ccc(C(=O)N4CCN(C5CCCCC5)CC4)cc3)c(=O)c2=O)CC1`, the IC50 in test [11] is > 20 µM (inactive).

Take `Cc1ccc(-c2noc(CCC(=O)NCC3CCN(Cc4cccc(C)c4)CC3)n2)cc1`: in test [11], the IC50 was > 20 µM (inactive).

`O=C(NN=C(c1ccccc1)c1ccccn1)c1ccccc1`: in the test with INS1, the AC50 is 736 nM (active). Also, the CC50 with Vero is 3.11 µM (active).

Regarding `CCOC(=O)Cc1csc(N/C=C2/C(=O)N(c3ccc(C)c(C)c3)C(=O)c3ccccc32)n1`, the EC50 is > 120 µM (not active) in test [12]; 10.1 µM (active) in test [13]; > 120 µM (not active) in test [14]; 15.1 µM (active) in test [3]; 10 µM (active) in [4].

Turning to `CC(=O)Nc1ccc(N2C(C(C)=O)=NN(c3ccc(Cl)cc3)C2c2sccc2C)cc1` (configuration not stated), the CC50 in test [6] is > 40 µM (active).

`Cc1ccc(-c2nnc(SCC(=O)N3CCN(c4ccccc4)CC3)o2)cc1`: the IC50 in test [1] is > 47.1 µM (inactive). Besides, the EC50 in test [2] was > 53 µM (inactive).
